Data reported in US7332495B2 (priority 2002, dated 2008).
Counter-ions that a name gives are not always drawn.

Key:
Kunming mice [1] = assay: Mice writhing model (acetic acid); format: in vivo; conditions: i.p. 20 mg/Kg, acetic acid 0.7% i.p. after 30 minutes, writhes in 5 minutes; for inhibition in vivo at 20 mg/kg: Mus musculus, ip, read-out: Analgesia (inhibition ratio of writhing)
Experimental: (§1) Kunming mice were used, with a male-female ratio of 50-50%. The test compound is administered i.p. (20 mg/Kg body weight) to the test groups, and physiological saline is administered P.O. (20 ml/Kg body weight) to the control group. After 30 minutes, acetic acid (0.7%, […] i.p.) was injected and the number of writhes was observed during a 5-minute period after acetic acid administration. The inhibition ratio of the writhing threshold was calculated. The alternating current tube is used to record the spontaneous activities for measuring sedation.
Two species of animals (mice and rats) and four types of pain testing models (i.p. 0.7% acetic acid, s.c. 5% formalin, hot plate 55° C., focused radiant heat) were used.

Kunming mice [2] = assay: Sedation: spontaneous activities recorded with alternating current tube; format: in vivo; conditions: i.p. 20 mg/Kg, spontaneous activities; for inhibition in vivo at 20 mg/kg: Mus musculus, ip
Experimental: as §1, with “The test compound is administered i.p. (20 mg/Kg body weight) to the test groups, and physiological saline is administered P.O. (20 ml/Kg body weight) to the control group.” left out

SMILES | melting point | also measured
COc1ccc(CN2CCN(CC(=O)c3ccccc3)CC2)cc1 (as salt: hydrochloride) [IV-10, N^1-(4-methoxybenzyl)-N^4-phenacyl piperazine] | 222 to 224 °C | 
O=C(CN1CCN(Cc2ccccc2)CC1)c1ccc(Cl)cc1 (as salt: hydrochloride) [IV-6, N^1-benzyl-N^4-(4-chlorophenacyl)piperazine] | 231 to 233 °C | 
CC(c1ccccc1)N1CCN(CC(=O)c2ccccc2)CC1 (stereo not shown) (as salt: hydrochloride) [IV-37, N^1-(1-phenylethyl)-N^4-phenacyl piperazine] | 242 °C (dec.) | 
Cc1ccc(C(=O)CN2CCN([C@H](C)c3ccccc3)CC2)cc1 (as salt: hydrochloride) [IV-41, N^1—(R-1-phenylethyl)-N^4-(4-methylphenacyl)piperazine] | 231 to 232 °C | 
CC(=O)Nc1ccc(CN2CCN(CC(=O)c3ccccc3)CC2)cc1 (as salt: hydrochloride) [IV-21, N^1-(4-acetamidobenzyl)-N^4-phenacyl piperazine] | 238 to 240 °C | 
O=C(CN1CCN(Cc2ccc3c(c2)OCO3)CC1)c1ccccc1 (as salt: hydrochloride) [IV-19, N^1-(3,4-methylenedioxybenzyl)-N^4-phenacyl piperazine] | 240 to 241 °C | 
COc1ccc2cc(C(=O)C(C)N3CCN(C(C)c4ccccc4)CC3)ccc2c1Cl (stereo not shown) (as salt: hydrochloride) [IV-43, N^1-(1-phenylethyl)-N^4-[1-(5-chloro-6-methoxy-2-naphthoyl)ethyl]piperazine] | 231 to 232 °C | 
Nc1ccc(C(=O)CN2CCN(Cc3ccccc3)CC2)cc1 (as salt: hydrochloride) [IV-16, N^1-benzyl-N^4-(4-aminophenacyl)piperazine] | 286 to 288 °C | 
O=C(CN1CCN(Cc2ccc([N+](=O)[O-])cc2)CC1)c1ccccc1 (as salt: hydrochloride) [IV-4, N^1-(4-nitrobenzyl)-N^4-phenacyl piperazine] | 236 to 238 °C | 
COc1ccc2cc(C(=O)C(C)N3CCN(Cc4ccc5c(c4)OCO5)CC3)ccc2c1Cl (stereo not shown) (as salt: hydrochloride) | 230 to 232 °C | 
O=C(CN1CCN(Cc2ccccc2)CC1)c1ccccc1 (as salt: hydrochloride) [IV-1, N^1-benzyl-N^4-phenacyl piperazine] | 238 to 239 °C | 
COc1ccc(C(=O)CN2CCN(Cc3ccccc3)CC2)cc1 (as salt: hydrochloride) [IV-8, N^1-benzyl-N^4-(4-methoxyphenacyl)piperazine] | 228 to 230 °C | 
O=C(CN1CCN(Cc2ccc(Cl)cc2)CC1)c1ccccc1 (as salt: hydrochloride) [IV-3, N^1-(4-chlorobenzyl)-N^4-phenacyl piperazine] | 256 to 258 °C | 
COc1ccc(OC)c(CN2CCN(CC(=O)c3ccccc3)CC2)c1 (as salt: hydrochloride) [IV-15, N^1-(2,5-dimethoxybenzyl)-N^4-phenacyl piperazine] | 238 to 240 °C | 
Cc1ccc(C(=O)CN2CCN(C(C)c3ccccc3)CC2)cc1 (stereo not shown) (as salt: hydrochloride) [IV-40, N^1-(1-phenylethyl)-N^4-(4-methylphenacyl)piperazine] | 230 to 232 °C | 
CC(C(=O)c1ccccc1)N1CCN(Cc2ccc(N)cc2)CC1 (stereo not shown) (as salt: hydrochloride) [IV-13, N^1-(4-aminobenzyl)-N^4-(1-benzoylethyl)piperazine] | 244 to 246 °C (dec.) | 
O=C(CN1CCN(Cc2cccnc2)CC1)c1ccccc1 (as salt: hydrochloride) [IV-11, N^1-(3-pyridylmethyl)-N^4-phenacyl piperazine] | 225 to 226 °C | 
COc1ccc2cc(C(=O)C(C)N3CCN(Cc4ccc(N)cc4)CC3)ccc2c1Cl (stereo not shown) (as salt: hydrochloride) | 206 to 208 °C | 
O=C(CN1CCN(Cc2ccccc2)CC1)c1ccc([N+](=O)[O-])cc1 (as salt: hydrochloride) [IV-9, N^1-benzyl-N^4-(4-nitrophenacyl)piperazine] | 236 to 238 °C | 
COc1ccc2cc(C(=O)C(C)N3CCN(Cc4ccccc4)CC3)ccc2c1Cl (stereo not shown) (as salt: hydrochloride) | 252 to 253 °C (dec.) | 
CC(=O)Nc1ccc(C(=O)CN2CCN(Cc3ccc([N+](=O)[O-])cc3)CC2)cc1 (as salt: hydrochloride) [IV-18, N^1-(4-nitrobenzyl)-N^4-[(4-acetamido)phenacyl]piperazine] | 228 to 230 °C | 

SMILES | melting point | also measured
O=C(CCN1CCN(Cc2ccccc2)CC1)c1ccccc1 (as salt: hydrochloride) [IV-17, N^1-benzyl-N^4-(2-benzoylethyl)piperazine] | 230 to 232 °C | 
COc1cc(CN2CCN(C(C)C(=O)c3ccc4c(Cl)c(OC)ccc4c3)CC2)cc(OC)c1OC (stereo not shown) (as salt: hydrochloride) | 219 to 222 °C | 
O=C(CN1CCN(Cc2ccccc2)CC1)c1ccc2ccccc2c1 [IV-7, N^1-benzyl-N^4-(2-naphthoylmethyl)piperazine] |  | inhibition in vivo at 20 mg/kg (Kunming mice [1]): 25%; inhibition in vivo at 20 mg/kg (Kunming mice [2]): 43%
O=C(CN1CCN(Cc2ccccc2)CC1)c1ccc2ccccc2c1 (as salt: hydrochloride) [IV-7, N^1-benzyl-N^4-(2-naphthoylmethyl)piperazine] | 241 °C (dec.) | 
C[C@H](c1ccccc1)N1CCN(CC(=O)c2ccccc2)CC1 (as salt: hydrochloride) [IV-38, N^1—(R-1-phenylethyl)-N^4-phenacyl piperazine] | 230 to 232 °C | 
COc1ccc(CN2CCN(C(C)C(=O)c3ccc4c(Cl)c(OC)ccc4c3)CC2)cc1 (stereo not shown) (as salt: hydrochloride) [IV-31, N^1-(4-methoxybenzyl)-N^4-[1-(5-chloro-6-methoxy-2-naphthoyl)ethyl]piperazine] | 222 to 224 °C | 
CCC(c1ccccc1)N1CCN(CC(=O)c2ccccc2)CC1 (stereo not shown) [IV-61, N^1-(1-phenylpropyl)-N^4-phenacyl piperazine] |  | inhibition in vivo at 20 mg/kg (Kunming mice [1]): 6%; inhibition in vivo at 20 mg/kg (Kunming mice [2]): 56%
O=C(CN1CCN(Cc2ccc([N+](=O)[O-])cc2)CC1)c1ccccc1 [IV-4, N^1-(4-nitrobenzyl)-N^4-phenacyl piperazine] |  | inhibition in vivo at 20 mg/kg (Kunming mice [1]): 93.2%; inhibition in vivo at 20 mg/kg (Kunming mice [2]): 39.6%
CC(c1ccc([N+](=O)[O-])cc1)N1CCN(CC(=O)c2ccccc2)CC1 (stereo not shown) [IV-60, N^1-[1-(4-nitrophenyl)ethyl]-N^4-phenacyl piperazine] |  | inhibition in vivo at 20 mg/kg (Kunming mice [1]): 37%; inhibition in vivo at 20 mg/kg (Kunming mice [2]): 66%
O=C(CN1CCN(Cc2ccc([N+](=O)[O-])cc2)CC1)NCc1ccccc1 [IV-62, N^1-(4-nitrobenzyl)-N^4-[2-(benzylamino)-2-oxo-ethyl]piperazine] |  | inhibition in vivo at 20 mg/kg (Kunming mice [1]): 64%; inhibition in vivo at 20 mg/kg (Kunming mice [2]): 42%
COc1ccc(C(=O)CN2CCN(Cc3ccccc3)CC2)cc1 [IV-8, N^1-benzyl-N^4-(4-methoxyphenacyl)piperazine] |  | inhibition in vivo at 20 mg/kg (Kunming mice [1]): 39%; inhibition in vivo at 20 mg/kg (Kunming mice [2]): 64%
CC(C(=O)c1ccccc1)N1CCN(Cc2ccc(N)cc2)CC1 (stereo not shown) [IV-13, N^1-(4-aminobenzyl)-N^4-(1-benzoylethyl)piperazine] |  | inhibition in vivo at 20 mg/kg (Kunming mice [1]): 100%; inhibition in vivo at 20 mg/kg (Kunming mice [2]): 86%
CCOC(=O)C(c1ccccc1)N1CCN(CC(=O)c2ccccc2)CC1 (stereo not shown) [IV-5, N^1-[(1-ethoxy-oxo-methyl)benzyl]-N^4-phenacyl piperazine] |  | Analgesia (inhibition ratio of writhing) (Kunming mice [1]): 14%; Sedation (Kunming mice [2]): 44%
O=C(CN1CCN(Cc2ccccc2)CC1)c1ccc(Cl)cc1 [IV-6, N^1-benzyl-N^4-(4-chlorophenacyl)piperazine] |  | inhibition in vivo at 20 mg/kg (Kunming mice [1]): 43%; inhibition in vivo at 20 mg/kg (Kunming mice [2]): 73%
COc1ccc2cc(C(=O)C(C)N3CCN(C(C)c4ccccc4)CC3)ccc2c1Cl (stereo not shown) [IV-43, N^1-(1-phenylethyl)-N^4-[1-(5-chloro-6-methoxy-2-naphthoyl)ethyl]piperazine] |  | inhibition in vivo at 20 mg/kg (Kunming mice [1]): 42%; inhibition in vivo at 20 mg/kg (Kunming mice [2]): 4%
O=C(CN1CCN(Cc2ccc(F)cc2)CC1)c1ccc(Cl)cc1 (as salt: hydrochloride) [IV-20, N^1-(4-fluorobenzyl)-N^4-(4-chlorophenacyl)piperazine] | 246 to 248 °C (dec.) | 
Cc1ccc(C(=O)CN2CCN([C@@H](C)c3ccccc3)CC2)cc1 [IV-42, N^1-(S-1-phenylethyl)-N^4-(4-methylphenacyl)piperazine] |  | Analgesia (inhibition ratio of writhing) (Kunming mice [1]): 44%; Sedation (Kunming mice [2]): 0%
O=C(CN1CCN(Cc2ccc3ccccc3c2)CC1)c1ccccc1 [IV-59, N^1-(2-naphthalenylmethyl)-N^4-phenacyl piperazine] |  | inhibition in vivo at 20 mg/kg (Kunming mice [1]): 45%; inhibition in vivo at 20 mg/kg (Kunming mice [2]): 0%
COc1ccc(C(=O)CN2CCN(CCC(O)c3ccccc3)CC2)cc1 (stereo not shown) [IV-22, N^1-(3-phenylpropyl-3-ol)-N^4-(4-methoxyphenacyl)piperazine] |  | Analgesia (inhibition ratio of writhing) (Kunming mice [1]): 100%; Sedation (Kunming mice [2]): 84%
O=C(CN1CCN(CCc2ccccc2)CC1)c1ccccc1 (as salt: hydrochloride) [IV-14, N^1-phenethyl-N^4-phenacyl piperazine] | 238 to 240 °C | 
CC(C(=O)c1ccccc1)N1CCN(Cc2ccc(Cl)cc2)CC1 (stereo not shown) (as salt: hydrochloride) | 260 to 262 °C | 
